Data from ChEMBL document CHEMBL1201862, “PubChem BioAssay data set” (2004).
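These data come from cells grown in 96-well plates and exposed to compound for 48 hours at five concentrations. Here, GI50 denotes the concentration required for 50% inhibition of growth.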 Activity calls are given as the source filed them. No stated cut-off is given here; in the data, active = GI50 up to about 1.1 µM and inactive = higher.

Columns and labels:
Assay in all cases: inhibition of tumour cell growth, NCI panel, 48 h
[1] = test system: M14
[2] = test system: SK-MEL-2
[3] = test system: UO-31
[4] = test system: NCI/ADR-RES
[5] = test system: LOX IMVI
[6] = test system: UACC-62
[7] = test system: K562
[8] = test system: COLO 205
[9] = test system: OVCAR-3
[10] = test system: RXF 393
[11] = test system: U-251
[12] = test system: SNB-75
[13] = test system: SK-MEL-28
[14] = test system: PC-3
[15] = test system: Hs-578T
[16] = test system: SK-MEL-5
[17] = test system: HT-29
[18] = test system: SNB-19
[19] = test system: NCI-H460
[20] = test system: SF-539

SMILES | GI50 [1] | GI50 [2] | GI50 [3] | GI50 [4] | GI50 [5] | GI50 [6] | GI50 [7] | GI50 [8] | GI50 [9] | GI50 [10] | GI50 [11] | GI50 [12] | GI50 [13] | GI50 [14] | GI50 [15] | GI50 [16] | GI50 [17] | GI50 [18] | GI50 [19] | GI50 [20]
N/C(=N\c1ccccc1)c1ccccc1N | > 100 µM (inactive) | > 100 µM (inactive) | > 100 µM (inactive) | > 100 µM (inactive) | > 100 µM (inactive) | > 100 µM (inactive) | > 100 µM (inactive) | > 100 µM (inactive) | > 100 µM (inactive) | > 100 µM (inactive) | > 100 µM (inactive) | 80.2 µM (inactive) | 19.6 µM (inactive) | > 100 µM (inactive) | > 100 µM (inactive) | > 100 µM (inactive) | > 100 µM (inactive) | > 100 µM (inactive) | > 100 µM (inactive) | 
Cc1cc2c(cc1Cl)SC(NNC(=O)c1ccccc1)=NS2(=O)=O | > 10 µM (inactive) | > 10 µM (inactive) |  | > 10 µM (inactive) | > 10 µM (inactive) | > 10 µM (inactive) | > 10 µM (inactive) | > 10 µM (inactive) | > 10 µM (inactive) | > 10 µM (inactive) | > 10 µM (inactive) | > 10 µM (inactive) | > 10 µM (inactive) | > 10 µM (inactive) | > 10 µM (inactive) | > 10 µM (inactive) | > 10 µM (inactive) | > 10 µM (inactive) | > 10 µM (inactive) | > 10 µM (inactive)
O=C(c1ccccc1)N1OCCC1Nc1ccc(Br)cc1 (stereo unspecified) | 4.99 µM (inactive) | > 10 µM (inactive) | 1.87 µM (inactive) | 5.43 µM (inactive) | > 10 µM (inactive) |  | 0.423 µM (active) | 1.81 µM (inactive) | > 10 µM (inactive) | > 10 µM (inactive) |  | > 10 µM (inactive) | > 10 µM (inactive) | 2.04 µM (inactive) | > 10 µM (inactive) | 6.97 µM (inactive) | 0.818 µM (active) | > 10 µM (inactive) | 5.45 µM (inactive) | 2.08 µM (inactive)
O=C1/C(=C/c2ccccc2)CCCC1CN1CCCCC1 (stereo unspecified) | 1.89 µM (inactive) | 4.56 µM (inactive) | 1.88 µM (inactive) | 3.24 µM (inactive) | 1.65 µM (inactive) | 6.53 µM (inactive) |  | 3 µM (inactive) | 1.71 µM (inactive) | 1.83 µM (inactive) | 13.3 µM (inactive) | 7.91 µM (inactive) | 1.97 µM (inactive) | 11.4 µM (inactive) | 2.94 µM (inactive) | 4.31 µM (inactive) | 1.58 µM (inactive) | 15.7 µM (inactive) | 6.58 µM (inactive) | 3.12 µM (inactive)
CCc1cc2c(c3c1CCCC3=O)CC1(C2)Cc2cc(CC)c3c(c2C1)C(=O)CCC3 | > 100 µM (inactive) | > 100 µM (inactive) | > 100 µM (inactive) | > 100 µM (inactive) | > 100 µM (inactive) |  | 65.9 µM (inactive) | > 100 µM (inactive) | 86.3 µM (inactive) | > 100 µM (inactive) | 87.5 µM (inactive) | 30.5 µM (inactive) | > 100 µM (inactive) | 46.5 µM (inactive) | > 100 µM (inactive) | 54.3 µM (inactive) | 76.2 µM (inactive) | > 100 µM (inactive) | 93.8 µM (inactive) | > 100 µM (inactive)
O=C(CCC(C(=O)OCc1ccccc1)C(=O)OCc1ccccc1)Nc1ccc(OCc2ccccc2)cc1 | > 100 µM (inactive) |  | > 100 µM (inactive) | 60.4 µM (inactive) | > 100 µM (inactive) | > 100 µM (inactive) | > 100 µM (inactive) | 41 µM (inactive) | > 100 µM (inactive) | 49.8 µM (inactive) | 38.3 µM (inactive) | > 100 µM (inactive) | > 100 µM (inactive) | 17.6 µM (inactive) | 52.7 µM (inactive) |  | > 100 µM (inactive) | 83.2 µM (inactive) | 59.4 µM (inactive) | > 100 µM (inactive)
C[N+](C)(N)Cc1nc(-c2ccc(Cl)cc2)no1 | > 100 µM (inactive) | > 100 µM (inactive) |  | > 100 µM (inactive) | > 100 µM (inactive) | > 100 µM (inactive) | 44.2 µM (inactive) | > 100 µM (inactive) | > 100 µM (inactive) | > 100 µM (inactive) | > 100 µM (inactive) | > 100 µM (inactive) | > 100 µM (inactive) | > 100 µM (inactive) | > 100 µM (inactive) | 75.3 µM (inactive) | > 100 µM (inactive) | > 100 µM (inactive) | > 100 µM (inactive) | > 100 µM (inactive)
CCCCCCCCCCCCCCCCCCOCC(CO[PH](=O)O)OCCCCCCCCCCCCCCCCCC (stereo unspecified) | > 50 µM (inactive) | > 50 µM (inactive) |  | > 50 µM (inactive) | > 50 µM (inactive) |  | > 50 µM (inactive) | > 50 µM (inactive) | > 50 µM (inactive) | > 50 µM (inactive) | > 50 µM (inactive) | > 50 µM (inactive) | > 50 µM (inactive) | > 50 µM (inactive) | > 50 µM (inactive) | > 50 µM (inactive) | > 50 µM (inactive) | > 50 µM (inactive) | > 50 µM (inactive) | > 50 µM (inactive)
COC1C(O)C(C)OC(OC2C(Oc3cccc4c(O)c5c(=O)oc6ccc(C)c7c(=O)oc(c34)c5c67)OC(C)C(O)C2O)C1O (stereo unspecified) | 4.13 µM (inactive) | 1.03 µM (active) | 4.59 µM (inactive) | 11.8 µM (inactive) | 1.14 µM (inactive) | 1.17 µM (inactive) | 0.804 µM (active) | 3.41 µM (inactive) | 2.34 µM (inactive) | 1.34 µM (inactive) | 0.959 µM (active) | 2.49 µM (inactive) | 1.6 µM (inactive) | 4.04 µM (inactive) | 2.38 µM (inactive) | 1.59 µM (inactive) | 2.63 µM (inactive) |  | 2.26 µM (inactive) | 1.51 µM (inactive)
COc1cc(O)c(C(C)=O)c(O)c1 | 86.9 µM (inactive) | 78.9 µM (inactive) | 59.6 µM (inactive) | > 100 µM (inactive) | 75.9 µM (inactive) | 46.1 µM (inactive) | 18.7 µM (inactive) | > 100 µM (inactive) | > 100 µM (inactive) | > 100 µM (inactive) | 63.8 µM (inactive) | 50.8 µM (inactive) | 52.6 µM (inactive) | 60.7 µM (inactive) | 62.7 µM (inactive) | 35.3 µM (inactive) | > 100 µM (inactive) |  | 88.1 µM (inactive) | > 100 µM (inactive)
N#Cc1c(Cl)cccc1Oc1ccc(S(=O)(=O)N/C(=N\O)Nc2ccc(Cl)cc2)cc1 | 15.7 µM (inactive) | 17.6 µM (inactive) | 14.2 µM (inactive) | 20.7 µM (inactive) | 16 µM (inactive) | 15.5 µM (inactive) | 24.2 µM (inactive) | 18.2 µM (inactive) | 15.8 µM (inactive) | 17.9 µM (inactive) | 17 µM (inactive) |  | 19.9 µM (inactive) | 16.4 µM (inactive) | 27.4 µM (inactive) | 17.2 µM (inactive) | 17.3 µM (inactive) | 16.3 µM (inactive) | 17.9 µM (inactive) | 17.7 µM (inactive)
